The text below walks through data of US20090271892A1, “LYSOPHOSPHATIDIC ACID ACYLTRANSFERASE GENES AND USES THEREOF” (priority 2006, published 2009).

The target of data set [1] is Brassica napus LPAAT (BnLPAAT) (Brassica napus, UniProt Q9XFW4). In words: Competitive LPAAT assay using C18:1-CoA and C19CA-CoA. In kind it is biochemical. The protocol:
(§1) The ^3H-oleoyl-lysophosphatidic acid (^3HLPA, ref. NET1100; 600 μM, 28 mCi mmol^−1) and ^14C-Oleoyl-CoA (^14CC18:1-CoA, ref. NET651A; 300 μM, 11 mCi mmol^−1) radio-labeled substrates were purchased from Perkin Elmer. Assays were carried out in a final volume of 300 μl and contained Tris/HCl (100 mM, pH7.5), Triton X-100 (0.01% w/v), BSA (1 mg/ml), ascorbic acid (10 mM), EDTA (2 mM), 100 μl LPA and 50 μl acyl-CoA. The reaction was started by the addition of 30 μl of microsomes, and conducted in a glass vial placed in a Eppendorf Thermomixer-compact apparatus (30° C., 350 rpm). The reaction was stopped after incubation (from 0 to 120 min) by addition of 720 μl of chloroform/methanol (1:1). To separate the phases, 280 μl of 1M KCl in 0.2 M H3PO4 were added and the whole mixture was vortexed for 10 s before centrifugation at 1300 g, 5 min at room temperature. The upper aqueous phase was discarded and 2×25 μl of the remaining organic phase was spotted on to silica gel 60 ÅF254 TLC plates (ref. 1.05715, Merck) and developed in chloroform/methanol/NH4OH/water (65:25:0.9:3). The phosphatidic acid spot was visualized by iodine revelation and collected for scintillation counting.
(§2) Radioactivity measurement was performed in 10 mL Ultimagold (ref. 6013329, Perkin Elmer) using a liquid scintillation analyzer (Tri-Carb 2100TR, Packard) for determination of ^3H and ^14C separately.
(§3) […] For all experimental conditions, data are derived from three experiments with 4 replicates each.
(§4) LPAAT selectivity for the two substrates is calculated as follows:
(§5) Selectivity for C18:1-CoA: S^C18:1-CoA=^14C/^3H
(§6) Selectivity for C19CA-CoA: S^C19:1CA-CoA=(^3H—^14C)/^3H
(§7) in which, ^3H and ^14C are the molar quantity of produced PA and the molar quantity of ^14C18:1 incorporated into this PA. These molar quantities are calculated from the corresponding ^3H and ^14C radioactivity levels measured in the phosphatidic acid spots scraped from TLC plates. Selectivity is expressed as the fraction of the specific fatty acid incorporated out of the total incorporated at the sn-2 position.

Data set [2] concerns the target Litchi sinensis LPAAT (LsLPAAT) (Litchi chinensis, UniProt A0A346D9Z1). The description is as above. It counts as biochemical. The protocol:
as §1, §2, §3, §4, §5, §6, §7

Substrate in data set [3]: CCCCCCCC/C=C\CCCCCCCC(=O)SCCNC(=O)CCNC(=O)[C@H](O)C(C)(C)COP(=O)(O)OP(=O)(O)OC[C@H]1O[C@@H](n2cnc3c(N)ncnc32)[C@H](O)[C@@H]1OP(=O)(O)O
In words: LPAAT assay, kinetic parameters with C18:1-CoA, E. coli JC201 microsomes. It counts as biochemical, Litchi sinensis. As to conditions: other: C18:1-CoA 0-50 μM, 10 min, 30° C., pH7.5, N = 5, pH 7.5. The protocol:
The inventors have identified one putative Lysophosphatidic Acid-Acyl Transferase from Lychee (SEQ ID No 2). They also have obtained a mutated protein derived from this protein, which is depicted as SEQ ID No 1.
Plasmids pEW108 and 117 comprising genes coding for SEQ ID No 1 and SEQ ID No 2 respectively under the control of the araBAD promoter (Guzman, L-M. et al. (1995) J Bacteriology 177: 4121-4130) were prepared and used to transform and complement an E. coli strain. The araBAD promoter is induced by arabinose, repressed by glucose and is used in the art to express polynucleotides in a controlled manner.
The following experiments were performed with the Escherichia coli JC201 mutant strain, which is temperature conditional in endogenous LPAAT activity and able to grow at 30° C. but not at 44° C. (genotype plsC, described in Coleman, 1990 J. Biol. Chem., 265 (28), 17215-21.). These bacteria were kept at −80° C. as 1 ml glycerol stocks. For E. coli JC201 transformation, one glycerol stock was diluted in 15 mL of Luria-Bertani (ref. L3022, Sigma) liquid medium and cultivated overnight at 30° C. […] Optical density was measured at 600 nm and each flask was then cultivated for 6 hours at 30 and 44° C. respectively in order to check by optical density measurement that bacterial growth occurs at 30° C. but not at 44° C. […]

Data set [4] in a line: LPAAT assay with C18:1-CoA as substrate (microsomes of transformed E. coli). In kind it is biochemical. As to conditions: expressed in transformed E. coli mutant strains; FIG. 1. The protocol: The ^3H-oleoyl-lysophosphatidic acid (^3HLPA, ref. NET1100; 600 μM, 28 mCi mmol^−1) and ^14C-Oleoyl-CoA (^14CC18:1-CoA, ref. NET651A; 300 μM, 11 mCi mmol^−1) radio-labeled substrates were purchased from Perkin Elmer. Assays were carried out in a final volume of 300 μl and contained Tris/HCl (100 mM, pH7.5), Triton X-100 (0.01% w/v), BSA (1 mg/ml), ascorbic acid (10 mM), EDTA (2 mM), 100 μl LPA and 50 μl acyl-CoA. The reaction was started by the addition of 30 μl of microsomes, and conducted in a glass vial placed in a Eppendorf Thermomixer-compact apparatus (30° C., 350 rpm). The reaction was stopped after incubation (from 0 to 120 min) by addition of 720 μl of chloroform/methanol (1:1). […]
as §2
A first LPAAT assay was performed as described above in order to determine optimal LPAAT activity using ^14CC18:1-CoA as substrate: • Effect of incubation time was tested for 0, 1, 3, 5, 10, 30, 60 and 120 min with 50 μM ^14CC18:1-CoA at 30° C. • In order to determine LPAAT kinetic parameters, the effect of C18:1-CoA concentration was tested as described above. […] For all experimental conditions, the mean of 2 values is calculated. […]

A short description of data set [5]: Competitive LPAAT assay using C18:1-CoA and C19CA-CoA. It counts as biochemical. The note with it: competitive assays using C19CA-CoA and C18:1-CoA. The protocol: as §1, §2, §3, §4, §5, §6, §7
Where [6] appears, read: 50 μM C18:1-CoA, 25 μM C19CA, fraction of total incorporated at sn-2, read-out: Selectivity for C19CA-CoA in competition with C18:1-CoA.
Where [7] appears, read: 50 μM C18:1-CoA, 50 μM C19CA, fraction of total incorporated at sn-2, read-out: Selectivity for C19CA-CoA in competition with C18:1-CoA.
Setting [8] is: average over the concentrations, read-out: Average selectivity for C19CA-CoA in competition with C18:1-CoA.

Numbering of substitutions follows the chain as printed. Where two headings read alike, the source gives them in different places.

Chain of Brassica napus LPAAT (BnLPAAT) (Q9XFW4 other isoform, or with tags, fused parts or gaps): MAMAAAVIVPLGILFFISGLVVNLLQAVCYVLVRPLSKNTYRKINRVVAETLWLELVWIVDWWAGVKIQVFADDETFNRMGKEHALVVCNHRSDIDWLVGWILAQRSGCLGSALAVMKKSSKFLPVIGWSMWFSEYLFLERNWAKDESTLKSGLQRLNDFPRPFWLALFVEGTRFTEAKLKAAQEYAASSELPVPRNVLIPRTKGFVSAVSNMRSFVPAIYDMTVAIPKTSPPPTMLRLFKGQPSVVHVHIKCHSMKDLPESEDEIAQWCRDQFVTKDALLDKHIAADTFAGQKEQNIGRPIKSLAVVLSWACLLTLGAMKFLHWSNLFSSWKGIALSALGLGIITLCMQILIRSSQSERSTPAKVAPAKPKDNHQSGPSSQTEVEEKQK
Chain of Litchi sinensis LPAAT (LsLPAAT) (A0A346D9Z1 entry or part of it): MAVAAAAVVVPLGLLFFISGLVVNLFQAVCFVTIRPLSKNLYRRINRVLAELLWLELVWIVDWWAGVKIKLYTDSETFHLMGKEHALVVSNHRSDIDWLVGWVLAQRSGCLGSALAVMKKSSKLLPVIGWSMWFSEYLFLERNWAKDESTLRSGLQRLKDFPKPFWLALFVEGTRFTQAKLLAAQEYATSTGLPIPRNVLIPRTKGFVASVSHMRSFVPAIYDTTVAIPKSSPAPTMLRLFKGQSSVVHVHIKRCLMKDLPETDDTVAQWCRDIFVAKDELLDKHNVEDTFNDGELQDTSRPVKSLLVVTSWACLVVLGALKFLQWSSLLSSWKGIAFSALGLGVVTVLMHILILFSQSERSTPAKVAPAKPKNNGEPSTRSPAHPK

For the molecule `CCCCCCCCC1CC1CCCCCCCC(=O)SCCNC(=O)CCNC(=O)[C@H](O)C(C)(C)COP(=O)(O)OP(=O)(O)OC[C@H]1O[C@@H](n2cnc3c(N)ncnc32)[C@H](O)[C@@H]1OP(=O)(O)O` (stereo partly shown) [C19CA-CoA], the selectivity ratio stood at 0.01 in data set [1] (setting [6]); 0.19 in data set [1] (setting [7]); 0.054 ± 0.057 in data set [1] (setting [8]); 0.15 in data set [2] (25 μM C18:1-CoA, 10 μM C19CA, fraction of total incorporated at sn-2, read-out: Selectivity for C19CA-CoA in competition with C18:1-CoA); 0.34 in data set [2] (25 μM C18:1-CoA, 25 μM C19CA, fraction of total incorporated at sn-2, read-out: Selectivity for C19CA-CoA in competition with C18:1-CoA); 0.28 in data set [2] (setting [6]). Also, the selectivity ratio was 0.35 in data set [2] (setting [7]) and 0.377 ± 0.101 in data set [2] (setting [8]). Moreover, the “Fatty acids incorporated at the sn-2 position being 19:0CA” value in data set [2] (in competition with C18:1-CoA, even at low total concentrations of acyl-CoA) is “up to 35%”.

B1: Litchi sinensis LPAAT (LsLPAAT, pEW117), SEQ ID No 2 (Litchi chinensis) (protein)
chain: MAVAAAAVVVPLGLLFFISGLVVNLFQAVCFVTIRPLSKNLYRRINRVLAELLWLELVWIVDWWAGVKIKLYTDSETFHLMGKEHALVVSNHRSDIDWLVGWVLAQRSGCLGSALAVMKKSSKLLPVIGWSMWFSEYLFLERNWAKDESTLRSGLQRLKDFPKPFWLALFVEGTRFTQAKLLAAQEYATSTGLPIPRNVLIPRTKGFVASVSHMRSFVPAIYDTTVAIPKSSPAPTMLRLFKGQSSVVHVHIKRCLMKDLPETDDTVAQWCRDIFVAKDELLDKHNVEDTFNDGELQDTSRPVKSLLVVTSWACLVVLGALKFLQWSSLLSSWKGIAFSALGLGVVTVLMHILILFSQSERSTPAKVAPAKPKNNGEPSTRSQDKQK
As to B1, in data set [3], the Km came to 3.6 ± 1.7 µM and the Vmax was 0.000115 µmol/min/mg.

B2: LsLPAAT: L. sinensis LPAAT; clone not stated in Table 2, probably pEW108 / SEQ ID No 1 (protein)
chain: B1 chain with Q383P, D384A, K385H, Q386P
modifications: synthetic LPAAT derived from litchi
For B2, in data set [4], the “esterification of 14C-C18:1-CoA on 3H-LPA (presence of PA in lipid fraction)” value was “fully functional”. In addition, the “use of C19CA-CoA as substrate” value in data set [5] is “can use C19CA-CoA as substrate”.
